Data on three compounds can be found in patent US20250108017A1 (Aquestive Therapeutics, Inc., priority 2023, published 2025).

Where two headings read alike, the source gives them in different places.

The conditions of data set [1]: in vivo. The procedure:
The study compared various dose routes: sublingual (SL), per oral tablet (PO), subcutaneous (SC) and intravenous (IV). […] An Oral Irritation assessment was performed (SL film group): Predose (0) and 24 hr postdose by Draize scoring.

The conditions of data set [2]: for average flux: 16 mg/mL. As to the method:
A franz diffusion cell is obtained and prepared.
If testing films, one can perform the following next steps: (1) weigh films, punch to match diffusion area (or smaller), reweigh, record pre- and post-punching weight; (2) wet a donor area with approximately 100 μL of phosphate buffer; (3) place film on a donor surface, top with 400 μL of phosphate buffer, and start timers.
The tissue is dermatomed to precise thickness. • 4. […] The media is selected to ensure sink conditions. • 5.
The study compared concentrations of 4 mg/mL, 8 mg/mL, 16 mg/mL and 100 mg/mL. […]

The conditions of data set [3]: PBS (pH 7.4), 37°±1° C., n=6; cited from earlier work.

On to `CNC[C@H](O)c1ccc(OC(=O)C(C)(C)C)c(OC(=O)C(C)(C)C)c1` (racemic) [Dipivefrin, dipivefrin], for which, in data set [1], the “% Bioavailability, DIPI AUC0-t” value is listed as 128.5% and the “% Bioavailability, EPI AUC0-t” value turned out to be 131.0%.
As for `CNC[C@H](O)c1ccc(O)c(O)c1` [Epinephrine Bitartrate], the “permeation as a function of solution pH” value in data set [2] is recorded as “slightly more favorable”. Besides, the average flux in data set [2] (30 min) is listed as 0 μg/cm^2*min; in data set [2] (45 min), 0.2604 μg/cm^2*min; in data set [2] (60 min) it was 0.3125 μg/cm^2*min; in data set [2] (120 min) it was 0.6727 μg/cm^2*min; in data set [2] (180 min) it was 1.076 μg/cm^2*min; in data set [2] (240 min) it was 1.029 μg/cm^2*min. Further, the average flux in data set [2] (300 min) is on record as 1.25 μg/cm^2*min; in data set [2] (360 min) it was 1.385 μg/cm^2*min.
Regarding `CC(C)NCC(O)COc1cccc2ccccc12` (stereo not drawn) [PP], in data set [3], the “concentration of saturated solution (C0)” value is 588005 ± 5852 µg/mL.
